# US20240246905A1 (University of Leicester, priority 2021, published 2024)
# Legend:
# HEK293 cells = experiment: Cytotoxicity assay, resazurin (CO-ADD)
# Outline: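 HEK293 cells in DMEM with 10% FBS were exposed to compounds at a single concentration of 32 μg/mL for 20 h at 37° C, 5% CO2. Viability read by resazurin fluorescence (2.3 μg/mL final, 3 h; F560/590). CC50 from sigmoidal dose-response fitting.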
# MRSA 252 [1] = experiment: Disc diffusion (Kirby-Bauer), zone of inhibition; format: cell-based, Staphylococcus aureus; conditions: Staphylococcus aureus, 500 μg/mL, '/' = no zone, read-out: Zone of inhibition
# Outline: (§1)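 Zones of inhibition recorded after 24 h at 37 °C on Mueller-Hinton agar. Agar was inoculated with 1 in 200 diluted 18 h broth cultures, and discs carried 50 μL of antibiotic. Method follows CLSI 2017 disc diffusion.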
# MSSA 476 [2] = experiment: Disc diffusion (Kirby-Bauer), zone of inhibition; format: cell-based, Staphylococcus aureus; conditions: Staphylococcus aureus, 500 μg/mL, '/' = no zone, read-out: Zone of inhibition
# Outline: as §1
# MRSA 252 [3] = experiment: MIC, broth micro-dilution; format: cell-based, Staphylococcus aureus; conditions: Staphylococcus aureus, read-out: MIC
# Outline: (§2)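 S. aureus cultures grown 18 h in TSB were used to inoculate twofold antibiotic series in TSB at 5×10^5 CFU/mL, per CLSI guidelines. Growth curves read by optical density at 12-min intervals for 18 h at 37 °C were fitted sigmoidally to calculate MIC.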
# MSSA 476 [4] = experiment: MIC, broth micro-dilution; format: cell-based, Staphylococcus aureus; conditions: Staphylococcus aureus, MSSA, read-out: MIC
# Outline: as §2
# [5] = tested on: Staphylococcus aureus 15981; experiment: Disc diffusion (Kirby-Bauer), zone of inhibition; format: cell-based; conditions: Staphylococcus aureus 15981; 500 μg/mL; '/' = no zone; read-out: Zone of inhibition
# Outline: as §1
# Escherichia coli DH5α = experiment: Disc diffusion (Kirby-Bauer), zone of inhibition; format: cell-based; conditions: Escherichia coli DH5α; 500 μg/mL; '/' = no zone; read-out: Zone of inhibition
# Outline: as §1
# red blood cells = experiment: Hemolysis assay (CO-ADD); format: cell-based; conditions: 32 μg/mL highest concentration tested
# From the text: A problem often encountered by emerging drugs is hemolysis, also known as drug-induced immune hemolytic anemia.
# [6] = tested on: various Staphylococcus aureus strains; experiment: Disc diffusion, Staphylococcus aureus strain study; format: cell-based; conditions: Staphylococcus aureus, 500 μg/mL
# From the text: At this point in the study it was decided to perform a disc diffusion assay study on 50 S. aureus strains. […] Moreover, by employing a range of mutant strains of S. aureus with specific gene-deletions, it was believed that if particular strains were resistant to the lead compounds, it could provide insights on the likely protein target of the lead antibiotics. However, all six of the compounds utilized in this study were able to inhibit growth of all 50 strains of S. aureus assayed at the chosen concentration of 500 μg/mL concentration (Table 5).
# E. coli DH5α, P. aeruginosa PA01 and the 53 S. aureus strains were recovered from frozen (−80° C.) glycerol (15% v/v) stocks on Lysogeny agar (LA)—Gram negative and trypticase soy agar (TSA)—plates at 37° C. for 24 hours. Single colonies were placed in either 3 mL Lysogeny broth (LB)—Gram negative or trypticase soy broth (TSB)—Gram positive and incubated at 37° C., 250 rpm for 18 hours.
# The antibiotic activity was determined using a Kirby-Bauer method according to Clinical Standard Laboratory Institute (CSLI) Guidelines (2017). Briefly, 180 μL of a 1 in 200 dilution (in LB or TSB) of overnight cultures of selected Gram negative and Gram positive bacteria were applied to an agar plate containing the solid growth medium, Mueller-Hinton agar (MHA). Sterile discs, inoculated with 50 μL of antibiotic, were first added to the agar plate before the plates were incubated for 24 hours at 37° C. Following incubation, the zone of inhibition (if it existed) was recorded.
smiles,measurement,setting,value
"[C-]#[N+]/C=C/c1ccc(NC(C)=O)cc1/C=C/c1ccccc1 [Compound 41, N-(4-((E)-2-Isocyanovinyl)-3-((E)-styryl)phenyl)acetamide]",Concentration toxic to HEK 293 cells,HEK293 cells; HEK 293,>32000 ng/mL
same,toxicity towards the HEK293 cell line (in words),HEK293 cells; set concentration of 32 μg/mL,no toxicity
same,zone of inhibition at 500 µg/mL,MRSA 252 [1],32 mm
same,zone of inhibition at 500 µg/mL,MSSA 476 [2],34 mm
same,MIC,MRSA 252 [3],6 µg/mL
same,MIC,MSSA 476 [4],8 µg/mL
same,zone of inhibition at 500 µg/mL,[5],34 mm
same,zone of inhibition at 500 µg/mL,Escherichia coli DH5α,20 mm
same,Hemolytic activity (HC10),red blood cells,>32 µg/mL
same,zone of inhibition at 500 µg/mL,[6]; strain ASARM 61,28 mm
same,zone of inhibition at 500 µg/mL,[6]; strain ASARM 70,32 mm
same,zone of inhibition at 500 µg/mL,[6]; strain ASARM 71,32 mm
same,zone of inhibition at 500 µg/mL,[6]; strain ASARM 72,30 mm
same,zone of inhibition at 500 µg/mL,[6]; strain ASARM 73,27 mm
same,zone of inhibition at 500 µg/mL,[6]; strain ASARM 75,26 mm
same,zone of inhibition at 500 µg/mL,[6]; strain ASARM 76,27 mm
same,zone of inhibition at 500 µg/mL,[6]; strain ASARM 77,25 mm
same,zone of inhibition at 500 µg/mL,[6]; strain ASARM 79,29 mm
same,zone of inhibition at 500 µg/mL,[6]; strain ASARM 80,30 mm
same,zone of inhibition at 500 µg/mL,[6]; strain EOE 3,26 mm
same,zone of inhibition at 500 µg/mL,[6]; strain EOE 23,26 mm
same,zone of inhibition at 500 µg/mL,[6]; strain EOE 30,30 mm
same,zone of inhibition at 500 µg/mL,[6]; strain EOE 35,28 mm
same,zone of inhibition at 500 µg/mL,[6]; strain EOE 41,26 mm
same,zone of inhibition at 500 µg/mL,[6]; strain EOE 42,30 mm
same,zone of inhibition at 500 µg/mL,[6]; strain EOE 45,30 mm
same,zone of inhibition at 500 µg/mL,[6]; strain EOE 52,28 mm
same,zone of inhibition at 500 µg/mL,[6]; strain EOE 54,26 mm
same,zone of inhibition at 500 µg/mL,[6]; strain EOE 57,30 mm
same,zone of inhibition at 500 µg/mL,[6]; strain S139_7_7,22 mm
same,zone of inhibition at 500 µg/mL,[6]; strain S197_1_1,32 mm
same,zone of inhibition at 500 µg/mL,[6]; strain S197_1_8,30 mm
same,zone of inhibition at 500 µg/mL,[6]; strain S197_1_9,32 mm
same,zone of inhibition at 500 µg/mL,[6]; strain S197_1_10,31 mm
same,zone of inhibition at 500 µg/mL,[6]; strain S295_1_1,29 mm
same,zone of inhibition at 500 µg/mL,[6]; strain S295_1_2,25 mm
same,zone of inhibition at 500 µg/mL,[6]; strain S295_1_3,27 mm
same,zone of inhibition at 500 µg/mL,[6]; strain S364_5_11,27 mm
same,zone of inhibition at 500 µg/mL,[6]; strain S364_5_12,28 mm
same,zone of inhibition at 500 µg/mL,[6]; strain Sa_TPS 3026,28 mm
same,zone of inhibition at 500 µg/mL,[6]; strain Sa_TPS 3072,26 mm
same,zone of inhibition at 500 µg/mL,[6]; strain Sa_TPS 3092,28 mm
same,zone of inhibition at 500 µg/mL,[6]; strain Sa_TPS 3097,28 mm
same,zone of inhibition at 500 µg/mL,[6]; strain Sa_TPS 3103,28 mm
same,zone of inhibition at 500 µg/mL,[6]; strain Sa_TPS 3104,28 mm
same,zone of inhibition at 500 µg/mL,[6]; strain Sa_TPS 3106,36 mm
same,zone of inhibition at 500 µg/mL,[6]; strain Sa_TPS 3118,32 mm
same,zone of inhibition at 500 µg/mL,[6]; strain Sa_TPS 3133,28 mm
same,zone of inhibition at 500 µg/mL,[6]; strain Sa_TPS 3134,26 mm
same,zone of inhibition at 500 µg/mL,[6]; strain USFL 008,28 mm
same,zone of inhibition at 500 µg/mL,[6]; strain USFL 009,27 mm
same,zone of inhibition at 500 µg/mL,[6]; strain USFL 012,32 mm
same,zone of inhibition at 500 µg/mL,[6]; strain USFL 016,29 mm
same,zone of inhibition at 500 µg/mL,[6]; strain USFL 018,32 mm
same,zone of inhibition at 500 µg/mL,[6]; strain USFL 020,28 mm
same,zone of inhibition at 500 µg/mL,[6]; strain USFL 021,29 mm
same,zone of inhibition at 500 µg/mL,[6]; strain USFL 028,29 mm
same,zone of inhibition at 500 µg/mL,[6]; strain USFL 035,30 mm
same,zone of inhibition at 500 µg/mL,[6]; strain USFL 054,30 mm
same,zone of inhibition at 500 µg/mL,[6]; strain not given,30 mm
